# Patent publication US20250127778A1, “CANCER IMMUNOTHERAPY COMPOSITION CONTAINING INTERACTION INHIBITOR OF STING AND TRIM29 AS ACTIVE INGREDIENT” (SPARK BIOPHARMA, INC, priority 2021, published 2025)
# Legend:
# [1] = system: phosphorylation of downstream signaling proteins TBK1 and IRF3; experiment: Western blotting of STING sub-immune signaling pathway activation; assay type: cell-based; conditions: cGAMP alone; FIG. 7
# Method: First, the A431 cell line was seeded in a transparent 12-well plate and cultured for one day. Thereafter, the cells were treated with the compounds of Formulas 1 to 6, respectively, and then cultured for additional 24 hours. Finally, after supernatant culture medium of the cells was removed, the remaining supernatant was diluted and removed with PBS (phosphate buffer saline) to prepare a Western blotting sample. All procedures for preparing Western blotting sample were performed at 4° C. […] The protein concentration of the supernatant was measured by using the Micro BCA™ protein assay kit (ThermoFisher) according to the protocol of the manufacturer. […] The treated samples were analyzed by SDS-PAGE, then transferred to a PVDF membrane, and cultured in a TBST solution containing 4% BSA for 30 minutes. […] Finally, after four TBST washing processes, the solution was developed with an ECL (enhanced chemiluminescence) prime solution of Amersham, the chemical luminescence signal was measured by using ChemiDoc MP of Bio-Rad Laboratories, Inc., the obtained results were quantified by using the ImageLab 6.0 program, and the results were plotted by using the Prism 8.0 program. […]
# [2] = Body weight and toxicity signals in CT26 syngeneic mouse model; assay type: in vivo; conditions: treated individually or in combination, FIG. 24
# Method: 2×10^5 CT26 cell lines were prepared in 50 μL culture medium and subcutaneously injected. […] The cGAMP solution was manufactured with a final composition of PEG400:distilled water=40:60, and 20 μL was injected each time. The solution of the compound of Formula 1 was manufactured with the composition of DMSO:PEG400:distilled water=2:40:58, and 20 μL was injected each time. The cGAMP solution was injected once every two days, four times in total, and the solution of the compound of Formula 1 was injected once every four days, two times in total, starting with the second administration of cGAMP. The size of the tumor was measured by using calipers every two days, and the volume thereof was calculated as (length×width×height/2). The body weight of the mice was also measured every two days.
compound,measurement,setting,value
"Nc1nc2c(ncn2[C@@H]2O[C@@H]3COP(=O)(O)O[C@H]4[C@@H](O)[C@H](n5cnc6c(N)ncnc65)O[C@@H]4COP(=O)(O)O[C@@H]2[C@@H]3O)c(=O)[nH]1 [cGAMP, 2′,3′-Cyclic GMP-AMP, reference compound]",phosphorylation of TBK1 and IRF3,[1],increased
same,body weight change or signal of toxicity,[2],significant change in body weight or signal of toxicity was not observed
